Results on six compounds are retold here after US11129831B2, “Identification of agents displaying functional activation of dopamine D2 and D4 receptors” (Florida A&M University, priority 2017, dated 2021).

For orientation: Cmax means the highest concentration seen after dosing. Broadly, the Kp is tissue or fluid exposure divided by exposure in the circulation. In general, half-life refers to how long it takes for the measured level to halve. Read a low half-life as fast loss. As usually defined, the Emax is the greatest response seen or fitted, relative to the assay's reference. As usually defined, the Ki is a measure of affinity in units of concentration, obtained from inhibition or displacement. A word on the EC50: it is the concentration giving half of the maximal effect.

Series [1] has as its system other four DA receptor subtypes. In words: Binding to the other DA receptor subtypes. Conditions: result in words.
The subject of the next series is righting reflex. In words: Righting test (sedation). In kind it is in vivo. To be noted: rats, following CLP and bar tests.
Series [2] deals with T1, D2R (Homo sapiens, UniProt P14416). In words: cell-based. Conditions: for recruitment of β-arrestin-2 to the D2R: result in words; for Emax: normalized to vehicle (0%) and quinpirole (100%), read-out: β-Arrestin Emax. In kind it is cell-based.
Series [3] concerns apomorphine (APO)-induced climbing behavior. To be noted: for mice exhibiting inhibition of climbing: at higher dosages of each agent.
The subject of another series is catalepsy. In words: Catalepsy bar test.
Series [4] in a line: Pharmacokinetics, plasma and brain levels by HPLC-PDA. To be noted: for half-life: t1/2, elimination.
Series [5] concerns the target T1, D2R. The class given is binding.

T1 sequence (P14416 whole entry): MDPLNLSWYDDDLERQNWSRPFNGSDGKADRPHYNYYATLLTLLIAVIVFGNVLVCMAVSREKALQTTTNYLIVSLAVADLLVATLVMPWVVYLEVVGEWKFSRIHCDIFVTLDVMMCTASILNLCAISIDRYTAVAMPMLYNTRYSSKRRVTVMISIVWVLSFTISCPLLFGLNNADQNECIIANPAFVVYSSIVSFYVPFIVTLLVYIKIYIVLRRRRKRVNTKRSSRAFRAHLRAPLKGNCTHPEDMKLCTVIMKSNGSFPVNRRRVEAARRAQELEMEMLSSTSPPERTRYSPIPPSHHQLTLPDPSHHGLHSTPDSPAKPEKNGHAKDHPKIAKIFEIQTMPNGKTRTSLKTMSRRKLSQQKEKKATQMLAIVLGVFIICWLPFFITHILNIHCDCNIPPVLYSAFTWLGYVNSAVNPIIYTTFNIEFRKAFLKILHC

As for `Br.Br.Br.c1cnc(N2CCN(CCCc3nc4ccccc4s3)CC2)nc1` [Compound 28, 2-(3-(4-(Pyrimidin-2-yl)piperazin-1-yl)propyl)benzo[d]thiazole trihydrobromide], the “binding affinity to the other four DA receptor subtypes” value in series [1] is on record as “little or no binding affinity”.
Turning to `Fc1ccc(CCCCN2CCN(c3ccccn3)CC2)cc1` [SYA16263], the “righting after catalepsy testing” value with righting reflex is given as “all rats were observed to right themselves”. Further, the “recruitment of β-arrestin-2 to the D2R” value at D2R [2] is given as “promotes D2-mediated β-arrestin-2 translocation”. For the same compound, in series [3], the “mice exhibiting inhibition of climbing” value is given as approximately 100%. Besides, the “mean time on bar” value with catalepsy (rats, up to 239 μmole/kg (75 mg/kg), 19×ED50apom, no catalepsy) is less than 20 s. Further, the AUC0-t in series [4] (brain, rats, ip 50 mg/kg) is given as 86 μg · h/(mL or g); in series [4] (plasma, rats, ip 50 mg/kg), 5.4 μg · h/(mL or g). The tmax is 10 min in series [4] (brain, rats, ip 50 mg/kg) and 10.2 min in series [4] (rat, in vivo, ip, 50 mg/kg). In series [4] (plasma, rats, ip 50 mg/kg, used for BB), this compound registered a Cplasma of 5.23. In addition, the Cmax in series [4] (rat, in vivo, ip, 50 mg/kg) worked out at 63500 ng/g. Also, the Kp at 10 min in series [4] (rat, in vivo, ip, 50 mg/kg, BB=Cbrain/Cplasma, rats, ip 50 mg/kg, at ~equilibrium point) was 12.1. The half-life in series [4] (rat, in vivo, ip, 50 mg/kg, brain, rats, ip 50 mg/kg) was in the range of 174 to 186 min; in series [4] (rat, in vivo, ip, 50 mg/kg, plasma, rats, ip 50 mg/kg) it was 44.4 to 58.8 min. Also, the “Log BB” value in series [4] (rats, ip 50 mg/kg) is 1.08. Further, in series [4] (rats, ip 50.0 mg/kg, 24 h), the “brain concentration at 24-hour point” value is recorded as “near or below the detection limit”. Also, the “plasma concentration at 24-hour point” value in series [4] (rats, ip 50.0 mg/kg, 24 h) is “below the detection limit”.
For `Fc1ccc(OCCCN2CCN(c3ccccn3)CC2)cc1` [SYA16264], the “righting after catalepsy testing” value in the series with righting reflex was “All rats righted themselves”. For the same compound, the Emax at D2R [2] was 75.7%. For the same compound, the “mean time on bar” value in the series on catalepsy (male, Sprague-Dawley, rat, in vivo, 60 min) is less than 20 s.
`Fc1ccc(CCCCN2CCN(c3ccc(Cl)cc3)CC2)cc1` [SYA16267]: the Ki at D2R [5] was 284 ± 21 nM. Also, at D2R [2], the Emax worked out at 5.1% and the “recruitment of β-arrestin-2 to the D2R” value is given as “significant loss of the ability”. On D2R [2] (β-arrestin-2 recruitment to D2R), it took 248 nM to reach a half-maximal effect (EC50).
Consider `Fc1ccc(CCCCN2CCN(c3ncccn3)CC2)cc1` [SYA16268], for which the Emax on D2R [2] was found to be 71.9%.
For `O=C(CCCN1CCC(O)(c2ccc(Cl)cc2)CC1)c1ccc(F)cc1` [haloperidol], the “mice exhibiting inhibition of climbing” value in series [3] is listed as approximately 100%. Further, in series [3] (result in words), the “antipsychotic activity in animal models of schizophrenia (FIG. 10A)” value is “dose-dependent antipsychotic activity”. In addition, the “catalepsy at 6×ED50 (FIG. 10B)” value in the series with catalepsy (6×ED50 values, result in words) is “significant catalepsy”.
